Test results taken from patent publication US12414959B2, “Glucose infusion solution composition” (priority 2017, dated 2025).
In brackets after ≈: the same amount, converted by molar mass.

Experiments:
[1] = Stabilizer test (sodium bisulfite, EDTA-2Na dihydrate): color, pH and osmolality over 10 days
Description: First, 200 μl of sample F6 was added to 1800 μl of water for injection, and then stirred at room temperature, thereby preparing six samples, each consisting of 2 ml of a 10-fold-diluted sugar solution (samples a, a-1, b, b-1, c and c-1).
Next, the pH of each of the six samples was measured, and then adjusted with NaOH so as to be close to in vivo plasma pH 7.4.
A 0.1% solution of sodium bisulfite was prepared by mixing 5 mg of sodium bisulfite as stabilizer with 5 ml of water for injection, and a 0.2% solution of EDTA-2Na dihydrate was prepared by mixing 10 mg of EDTA-2Na dihydrate with 5 ml of water for injection. Then, 110 μl of each of the prepared solutions was added to some of the six 10-fold-diluted sugar solutions.

[2] = cited from earlier work
[3] = Preparation of clear sugar mixture solutions: clearness of dissolution; format: physicochemical; settings: added in an amount of two times the solubility until colorless, water for injection, room temperature
Description: Then, each sugar was added to 2 ml of water for injection, and stirred at room temperature until a clear solution was obtained. […] In addition, a sample was prepared by doubling the amount of sample F1, and the clearness of the solution was observed (F2).

[4] = Preliminary experiment on amino acids excluded from the test; format: physicochemical

Compound	suitability as stabilizer for sample F6 [1]	Solubility (Colorless): Solubility until colorless [2] [mg/mL]	Solubility (Maximum): A maximum of solubility [2] [mg/mL]	clearness of dissolution [3]	initial osmolality variation when added [4]
O.O.O=C([O-])CN(CCN(CC(=O)O)CC(=O)O)CC(=O)[O-].[Na+].[Na+] [EDTA-2NA dihydrate, disodium edetate dihydrate]	not suitable				
O=C[C@H](O)[C@@H](O)[C@@H](O)[C@H](O)CO [Galactose, galactose]		100 (≈ 555 mM)	683	clearly dissolved	
O=C[C@H](O)[C@@H](O)[C@H](O)[C@H](O)CO [Glucose, glucose]		133 (≈ 738 mM)		clearly dissolved	
C[C@H](O)[C@@H](O)[C@@H](O)[C@H](O)C=O [L-Fucose, L-fucose]		50 (≈ 305 mM)	827	clearly dissolved	
CC(=O)N[C@H]1C(O)O[C@H](CO)[C@H](O)[C@@H]1O (stereo partly drawn) [N-Acetyl galactosamine, N-acetylgalactosamine]		50 (≈ 226 mM)	100	clearly dissolved	
CC(=O)N[C@H]1C(O)O[C@H](CO)[C@@H](O)[C@@H]1O (stereo partly drawn) [N-Acetyl glucosamine, N-acetylglucosamine]		50 (≈ 226 mM)	50	clearly dissolved	
CC(=O)N[C@H]1[C@H]([C@H](O)[C@H](O)CO)OC(O)(C(=O)O)C[C@@H]1O (stereo partly drawn) [N-Acetyl neuraminic acid, N-acetylneuraminic acid]		50 (≈ 162 mM)	50	not clearly dissolved	
O=C[C@H](O)[C@@H](O)[C@H](O)CO [Xylose, xylose]		50 (≈ 333 mM)	100	not clearly dissolved	
N[C@@H](CS)C(=O)O [cysteine]					excessively high
O=S([O-])O.[Na+] [sodium bisulfite]	not suitable				
N[C@@H](Cc1c[nH]c2ccccc12)C(=O)O [tryptophan]					excessively high
